Experiment [1] has as its system HT29. Kind of experiment: NCI one-dose assay. Format: cell-based. The settings on record: Homo sapiens, HT-29, HT29, Colon cancer, read-out: Cell growth inhibition %.
For experiment [2], the system named is NCI-H460. Kind of experiment: NCI one-dose assay. The note with it: Homo sapiens, NCI-H460, Non-small cell lung cancer, read-out: Cell growth inhibition %. The experiment is classed as cell-based.
In experiment [3] the test system is SR. Kind of experiment: NCI one-dose assay. Format: cell-based. The note with it: Homo sapiens, Leukemia, read-out: Cell growth inhibition %.
In experiment [4] the test system is OVCAR-8. Kind of experiment: NCI one-dose assay. The experiment is classed as cell-based. The note with it: Homo sapiens, OVCAR-8, Ovarian cancer, read-out: Cell growth inhibition %.
For experiment [5], the system named is SK-OV-3. Description: NCI one-dose assay. The note with it: Homo sapiens, SK-OV-3, Ovarian cancer, read-out: Cell growth inhibition %. Format: cell-based.
Experiment [6] relates to SF-539. Kind of experiment: NCI one-dose assay. The note with it: Homo sapiens, SF-539, CNS cancer, read-out: Cell growth inhibition %. The experiment is classed as cell-based.
Experiment [7] has as its system HS 578 T. Kind of experiment: NCI one-dose assay. Format: cell-based. The note with it: Homo sapiens, Breast cancer, read-out: Cell growth inhibition %.
For experiment [8], the system named is RXF 393. Description: NCI one-dose assay. Format: cell-based. The note with it: Homo sapiens, RXF 393, Renal cancer, read-out: Cell growth inhibition %.
The subject of experiment [9] is MDA-MB-231/ATCC. Description: NCI one-dose assay. The experiment is classed as cell-based. The settings on record: Homo sapiens, Breast cancer, read-out: Cell growth inhibition %.
Experiment [10] has as its system SF-295. Description: NCI one-dose assay. The settings on record: Homo sapiens, SF-295, CNS cancer, read-out: Cell growth inhibition %. The experiment is classed as cell-based.
Experiment [11] relates to HCT-15. Kind of experiment: NCI one-dose assay. The settings on record: Homo sapiens, HCT-15, Colon cancer, read-out: Cell growth inhibition %. Format: cell-based.
Experiment [12] deals with MDA-MB-435. Description: NCI one-dose assay. The experiment is classed as cell-based. The settings on record: Homo sapiens, MDA-MB-435, Melanoma, read-out: Cell growth inhibition %.
In experiment [13] the test system is SF-268. Description: NCI one-dose assay. The settings on record: Homo sapiens, SF-268, CNS cancer, read-out: Cell growth inhibition %. Format: cell-based.
Experiment [14] concerns EKVX. Description: NCI one-dose assay. The experiment is classed as cell-based. The settings on record: Homo sapiens, Non-small cell lung cancer, read-out: Cell growth inhibition %.
The subject of experiment [15] is BT-549. Description: NCI one-dose assay. Format: cell-based. The note with it: Homo sapiens, BT-549, Breast cancer, read-out: Cell growth inhibition %.
The subject of experiment [16] is IGROV1. Description: NCI one-dose assay. Format: cell-based. The note with it: Homo sapiens, IGROV-1, IGROV1, Ovarian cancer, read-out: Cell growth inhibition %.
Experiment [17] relates to SK-MEL-5. Kind of experiment: NCI one-dose assay. The settings on record: Homo sapiens, SK-MEL-5, Melanoma, read-out: Cell growth inhibition %. Format: cell-based.
Experiment [18] has as its system A549/ATCC. Description: NCI one-dose assay. Format: cell-based. The note with it: Homo sapiens, Non-small cell lung cancer, read-out: Cell growth inhibition %.
The test system of experiment [19] is MDA-MB-468. Description: NCI one-dose assay. The experiment is classed as cell-based. The note with it: Homo sapiens, MDA-MB-468, Breast cancer, read-out: Cell growth inhibition %.
Experiment [20] has as its system NCI/ADR-RES. Kind of experiment: NCI one-dose assay. The experiment is classed as cell-based. The settings on record: Homo sapiens, Ovarian cancer, read-out: Cell growth inhibition %.
In experiment [21] the test system is UACC-62. Description: NCI one-dose assay. The note with it: Homo sapiens, UACC-62, Melanoma, read-out: Cell growth inhibition %. The experiment is classed as cell-based.
Experiment [22] has as its system MOLT-4. Description: NCI one-dose assay. The note with it: Homo sapiens, MOLT-4, Leukemia, read-out: Cell growth inhibition %. The experiment is classed as cell-based.
The subject of experiment [23] is M14. Kind of experiment: NCI one-dose assay. The experiment is classed as cell-based. The settings on record: Homo sapiens, M14, Melanoma, read-out: Cell growth inhibition %.
Experiment [24] deals with NCI 60 cell lines. Kind of experiment: NCI one-dose assay, full panel. The experiment is classed as cell-based, human. The note with it: across all cell lines, 10 µM. The procedure: The National Cancer Institute (NCI), Bethesda, USA, selected the final compounds 6a–j and 7a–j for in vitro anticancer screening. An initial in vitro single-dose anticancer experiment was performed with the entire NCI 60 cell lines derived from nine tumor subpanel cancer cell lines. The results for each compound were illustrated as a mean graph showing the percentage growth of treated cells compared to untreated control cells (see Supplementary Materials).
The NCI anticancer screening process has been thoroughly detailed. The Drug Evaluation Branch of the National Cancer Institute in Bethesda, […], USA, established the procedure and conducted the anticancer assay on 60 human tumor cell lines from nine neoplastic cancers.

SMILES strings stand for the structures.

In general, inhibition refers to the relative decrease from the control value, in per cent.

In the case of `C=CCn1c(SCC(=O)c2ccc(Cl)cc2)nnc1-c1c[nH]c2ccccc12` [Compound 6e, 2-((4-Allyl-5-(1H-indol-3-yl)-4H-1,2,4-triazol-3-yl)thio)-1-(4-chlorophenyl)ethenone], the inhibition at 10 µM in experiment [1] was -7.4%; in [2] it was -3.47%; in experiment [3] it was 12.2%; in [4], 9.77%; in [5] it was -20.6%; in [6], 0.21%. Also, the inhibition at 10 µM in [7] was -3.65%; in experiment [8], -9.22%; in experiment [9], 8.19%; in experiment [10] it was 3.57%; in experiment [11], 6.28%; in [12], -5.05%. In addition, the inhibition at 10 µM in experiment [13] was -4.81%; in experiment [14] it was 8.21%; in experiment [15], -0.26%; in experiment [16], 7.38%; in [17] it was 3.94%; in experiment [18] it was 3.63%. For the same compound, the inhibition at 10 µM in experiment [19] was 8%; in experiment [20], -2.31%; in [21], 14.7%; in experiment [22] it was 10.6%; in experiment [23], 6.76%. The “anticancer activity (in words)” value in experiment [24] was “minimal anticancer activity”.

Turning to `C=CCn1c(SC/C(=N\O)c2ccccc2)nnc1-c1c[nH]c2ccccc12` [Compound 7a, (Z)-2-((4-Allyl-5-(1H-indol-3-yl)-4H-1,2,4-triazol-3-yl)thio)-1-phenylethanone Oxime], the inhibition at 10 µM was -3.61% in experiment [1]; 3.34% in experiment [2]; -10.3% in [3]; 1.16% in [4]; 2.21% in experiment [5]; 3.26% in [6]. Also, the inhibition at 10 µM in [7] is 5.73%; in experiment [8], -4.5%; in [9], 3.9%; in experiment [10] it was 12.4%; in experiment [11], 4.41%; in experiment [12], -5.56%. Besides, the inhibition at 10 µM was -7.26% in [13]; 5.6% in experiment [14]; -3.51% in experiment [15]; 7.6% in experiment [16]; 1.57% in experiment [17]; -6.67% in experiment [18]. Moreover, the inhibition at 10 µM in experiment [19] is 15.4%; in experiment [20], -6.66%; in experiment [21], 13.6%; in [22] it was 2.51%; in experiment [23], -13.4%. Besides, the “anticancer activity (in words)” value in [24] is “minimal anticancer activity”.

Take `C=CCn1c(SCC(=NO)c2ccc(OC)cc2)nnc1-c1c[nH]c2ccccc12` [Compound 7b, 2-((4-allyl-5-(1H-indol-3-yl)-4H-1,2,4-triazol-3-yl)thio)-1-(4-methoxyphenyl) Ethanone Oxime]: the inhibition at 10 µM in [1] was -5.85%; in experiment [2], 5.34%; in experiment [3] it was 3.76%; in experiment [4], 7.1%; in experiment [5], 1.86%; in experiment [6] it was 4.37%. The inhibition at 10 µM is 2.61% in experiment [7]; -12.1% in experiment [8]; 13.5% in [9]; 16.6% in experiment [10]; 4.34% in experiment [11]; -10.6% in [12]. For the same compound, the inhibition at 10 µM in experiment [13] is -0.98%; in [14], 7.49%; in experiment [15], -3.8%; in [16], 17.6%; in experiment [17], 10.5%; in experiment [18] it was -9.29%. Also, the inhibition at 10 µM in [19] was 16.3%; in experiment [20], -3.18%; in experiment [21], 20.9%; in [22] it was 8.18%; in experiment [23], 2.83%. The “anticancer activity (in words)” value in [24] is listed as “minimal anticancer activity”.
